Measured values as given in patent US10421754B2, “Quinazoline derivative” (CSPC ZHONGQI PHARMACEUTICAL TECHNOLOGY (SHIJIAZHUANG) CO., …, priority 2014, dated 2019).

Test system: HCC827
Experiment: In vitro cell experiment (MTT), HCC827
Type: cell-based
Conditions: 72 h, human non-small cell lung carcinoma (EGFR1 19 exon mutation)
Procedure: (§1) Cells in logarithmic growth phase were seeded at a certain density in a 96-well plate (200 μL/well). The cells were allowed to grow for 24 h and subsequently treated with different concentrations of drugs (including a blank group and a control group) and incubated for 72 h at 37° C. Each concentration in a given experiment was tested in triplicate. After 72 h of exposure, 20 μL of the MTT labeling reagent was added to the medium (the final concentration of MTT was 0.5 mg/mL), and the cells were incubated for additional 4 h at 37° C. Following this process, 180 μL of the medium was removed and 130 μL of DMSO was added to each well, or the medium was completely removed and 150 μL of DMSO was added to each well. Then the plate was shaken and mixed in a micro-oscillator. Finally the optical density (OD) of each sample was measured in a micro-plate reader at 550 nm. Cell inhibition rate was calculated according to the following formula: […]
(§2) According to cell inhibition rates, IC50 was calculated by LOGIT method. The experiments were repeated twice and the data was expressed as means±SD.

COc1cc2c(Nc3ccc(Br)cc3F)ncnc2cc1OCCn1ccnc1 [Compound 34, 4-(4-bromo-2-fluoroanilino)-6-methoxy-7-(2-(1H-imidazol-1-yl)ethoxy)quinazoline] and COc1cc2c(Nc3ccc(Br)cc3F)ncnc2cc1OCCN1CCCC1 [Compound 2, 4-(4-bromo-2-fluoroanilino)-6-methoxy-7-((2-pyrrolidine-1-yl)ethoxy)quinazoline] are within 1.5-fold of each other in IC50: 8.2 nM for the first, 5.6 nM for the second.

COc1cc2c(Nc3ccc(F)c(Cl)c3)ncnc2cc1OCc1cnc(C)s1 [Compound 27, 4-(3-chloro-4-fluoroanilino)-6-methoxy-7-((2-methylthiazol-5-yl)methoxy)quinazoline] and COc1cc2c(Nc3ccc(F)c(Cl)c3)ncnc2cc1OCCCCCC(N)=O [Compound 24, 6-(4-(3-chloro-4-fluoroanilino)-6-methoxyquinazolin-7-yl-oxy)hexanamide] are within 1.5-fold of each other in IC50: 4.6 nM for the first, 5.6 nM for the second.

COc1cc2c(Nc3ccc(Br)cc3F)ncnc2cc1OCCCCC(N)=O [Compound 33, 5-(4-(4-bromo-2-fluoroanilino)-6-methoxyquinazolin-7-yl-oxy)pentanamide] showed an IC50 of 9.5 nM.

Test system: A431
Experiment: In vitro cell experiment (MTT), A431
Type: cell-based
Conditions: A-431, 72 h, human epidermoid carcinoma (EGFR1 overexpressing)
Procedure: as §1, §2

Compared with COc1cc2c(Nc3ccc(Br)cc3F)ncnc2cc1OCc1ccc2c(c1)OCO2 [Compound 1, 4-(4-bromo-2-fluoroanilino)-6-methoxy-7-((1,3-benzodioxole-5-yl)methoxy)quinazoline], COc1cc2c(Nc3ccc(Br)cc3F)ncnc2cc1OCC1CCOCC1 [Compound 15, 4-(4-bromo-2-fluoroanilino)-6-methoxy-7-((tetrahydropyran-4-yl)methoxy)quinazoline] is 2.1-fold higher in IC50: 1410 nM for the first, 2950 nM for the second.

Test system: H292
Experiment: In vitro cell experiment (MTT), H292
Type: cell-based
Conditions: NCI-H292, 72 h, human lung carcinoma cells (EGFR1 overexpressing)
Procedure: as §1, §2

Compared with COc1cc2c(Nc3ccc(Br)cc3F)ncnc2cc1OCCn1ccnc1 [Compound 34, 4-(4-bromo-2-fluoroanilino)-6-methoxy-7-(2-(1H-imidazol-1-yl)ethoxy)quinazoline], COc1cc2c(Nc3ccc(Br)cc3F)ncnc2cc1OCCN1CCCC1 [Compound 2, 4-(4-bromo-2-fluoroanilino)-6-methoxy-7-((2-pyrrolidine-1-yl)ethoxy)quinazoline] is 2-fold lower in IC50: 90.8 nM for the first, 46.3 nM for the second.

COc1cc2c(Nc3ccc(F)c(Cl)c3)ncnc2cc1OCc1cnc(C)s1 [Compound 27, 4-(3-chloro-4-fluoroanilino)-6-methoxy-7-((2-methylthiazol-5-yl)methoxy)quinazoline] and COc1cc2c(Nc3ccc(F)c(Cl)c3)ncnc2cc1OCCCCCC(N)=O [Compound 24, 6-(4-(3-chloro-4-fluoroanilino)-6-methoxyquinazolin-7-yl-oxy)hexanamide] are within 1.5-fold of each other in IC50: 78.3 nM for the first, 81.8 nM for the second.

COc1cc2c(Nc3ccc(Br)cc3F)ncnc2cc1OCCCCC(N)=O [Compound 33, 5-(4-(4-bromo-2-fluoroanilino)-6-methoxyquinazolin-7-yl-oxy)pentanamide] showed an IC50 of 73.4 nM.

Test system: PC-9
Experiment: In vitro cell experiment (MTT), PC-9
Type: cell-based
Conditions: 72 h, human non-small-cell lung carcinoma cells (EGFR1 19 exon mutation)
Procedure: as §1, §2

COc1cc2c(Nc3ccc(Br)cc3F)ncnc2cc1OCCn1ccnc1 [Compound 34, 4-(4-bromo-2-fluoroanilino)-6-methoxy-7-(2-(1H-imidazol-1-yl)ethoxy)quinazoline] and COc1cc2c(Nc3ccc(Br)cc3F)ncnc2cc1OCCCCC(N)=O [Compound 33, 5-(4-(4-bromo-2-fluoroanilino)-6-methoxyquinazolin-7-yl-oxy)pentanamide] are within 1.5-fold of each other in IC50: 5.7 nM for the first, 8.3 nM for the second.

Test system: A375
Experiment: In vitro cell experiment (MTT), A375
Type: cell-based
Conditions: A-375, 72 h, human melanoma cells (KDR expressing)
Procedure: as §1, §2

Work on COc1cc2c(Nc3ccc(Br)cc3F)ncnc2cc1OCCN1CCCC1 [Compound 2, 4-(4-bromo-2-fluoroanilino)-6-methoxy-7-((2-pyrrolidine-1-yl)ethoxy)quinazoline] yielded an IC50 of 185 nM.

Test system: HT-29
Experiment: In vitro cell experiment (MTT), HT-29
Type: cell-based
Conditions: 72 h, human colon carcinoma cells (expressing both c-KIT and PDGFR)
Procedure: as §1, §2

COc1cc2c(Nc3ccc(Br)cc3F)ncnc2cc1OCc1ccc2c(c1)OCO2 [Compound 1, 4-(4-bromo-2-fluoroanilino)-6-methoxy-7-((1,3-benzodioxole-5-yl)methoxy)quinazoline] and COc1cc2c(Nc3ccc(F)c(Cl)c3)ncnc2cc1OCc1cnc(C)s1 [Compound 27, 4-(3-chloro-4-fluoroanilino)-6-methoxy-7-((2-methylthiazol-5-yl)methoxy)quinazoline] are within 1.5-fold of each other in IC50: 2820 nM for the first, 2920 nM for the second.

With COc1cc2c(Nc3ccc(F)c(Cl)c3)ncnc2cc1OCCCCCC(N)=O [Compound 24, 6-(4-(3-chloro-4-fluoroanilino)-6-methoxyquinazolin-7-yl-oxy)hexanamide] the IC50 was 1840 nM.

Test system: HCT116
Experiment: In vitro cell experiment (MTT), HCT116
Type: cell-based
Conditions: HCT-116, 72 h, human colon carcinoma cells
Procedure: as §1, §2

With COc1cc2c(Nc3ccc(Br)cc3F)ncnc2cc1OCCN1CCCC1 [Compound 2, 4-(4-bromo-2-fluoroanilino)-6-methoxy-7-((2-pyrrolidine-1-yl)ethoxy)quinazoline] the IC50 was 1080 nM.

Test system: SK-OV-3
Experiment: In vitro cell experiment (MTT), SK-OV-3
Type: cell-based
Conditions: 72 h, human ovarian carcinoma cells (EGFR2 overexpressing)
Procedure: as §1, §2

With COc1cc2c(Nc3ccc(F)c(Cl)c3)ncnc2cc1OCCCCCC(N)=O [Compound 24, 6-(4-(3-chloro-4-fluoroanilino)-6-methoxyquinazolin-7-yl-oxy)hexanamide] the IC50 was 2450 nM.

Test system: A549
Experiment: In vitro cell experiment (MTT), A549
Type: cell-based
Conditions: 72 h, human non-small-cell lung carcinoma cells (EGFR1 wildtype)
Procedure: as §1, §2

Compared with COc1cc2c(Nc3ccc(Br)cc3F)ncnc2cc1OCCn1ccnc1 [Compound 34, 4-(4-bromo-2-fluoroanilino)-6-methoxy-7-(2-(1H-imidazol-1-yl)ethoxy)quinazoline], COc1cc2c(Nc3ccc(Br)cc3F)ncnc2cc1OCCCCC(N)=O [Compound 33, 5-(4-(4-bromo-2-fluoroanilino)-6-methoxyquinazolin-7-yl-oxy)pentanamide] is 2.8-fold higher in IC50: 1290 nM for the first, 3570 nM for the second.

COc1cc2c(Nc3ccc(F)c(Cl)c3)ncnc2cc1OCc1cnc(C)s1 [Compound 27, 4-(3-chloro-4-fluoroanilino)-6-methoxy-7-((2-methylthiazol-5-yl)methoxy)quinazoline] and COc1cc2c(Nc3ccc(F)c(Cl)c3)ncnc2cc1OCCCCCC(N)=O [Compound 24, 6-(4-(3-chloro-4-fluoroanilino)-6-methoxyquinazolin-7-yl-oxy)hexanamide] are within 1.5-fold of each other in IC50: 3890 nM for the first, 2940 nM for the second.

Test system: HUVEC
Experiment: In vitro cell experiment (MTT), HUVEC
Type: cell-based
Conditions: 72 h, human umbilical vein endothelial cell (KDR overexpressing)
Procedure: as §1, §2

With COc1cc2c(Nc3ccc(Br)cc3F)ncnc2cc1OCCN1CCCC1 [Compound 2, 4-(4-bromo-2-fluoroanilino)-6-methoxy-7-((2-pyrrolidine-1-yl)ethoxy)quinazoline] the IC50 was 40.4 nM.

Test system: Eca109
Experiment: In vitro cell experiment (MTT), Eca109
Type: cell-based
Conditions: ECa-109, 72 h, human esophageal carcinoma cells
Procedure: as §1, §2

Work on COc1cc2c(Nc3ccc(Br)cc3F)ncnc2cc1OCCN1CCCC1 [Compound 2, 4-(4-bromo-2-fluoroanilino)-6-methoxy-7-((2-pyrrolidine-1-yl)ethoxy)quinazoline] yielded an IC50 of 5800 nM.

Test system: not listed separately
Experiment: Mouse maximum tolerated dose (MTD) experiment
Conditions: in vivo, mice, oral, administered 7 days then observed 7 days
Procedure: In the mouse MTD experiment, the mice were administrated with the present compounds.
Healthy mice, having a small difference in body's weights, were chosen. The chosen mice were placed in different layers of cages according to their body's weights. In each layer, the mice were randomly divided into groups. In each group, there were three mice.
The administration dosages were 1000, 500, 250, 125, 62.5 and 31.25 mg/kg respectively and each two dosages differed by a factor of 2. For each of administration dosages, three mice were allotted. The mice were administrated with the present compounds for 7 days and then observed for the next 7 days without the present compounds.
The present compounds were orally administrated with the mice according to the administration dosage and the body weight.

First: COc1cc2c(Nc3ccc(Br)cc3F)ncnc2cc1OCc1ccc2c(c1)OCO2 [Compound 1, 4-(4-bromo-2-fluoroanilino)-6-methoxy-7-((1,3-benzodioxole-5-yl)methoxy)quinazoline]
Second: COc1cc2c(Nc3ccc(Br)cc3F)ncnc2cc1OCCn1ccnc1 [Compound 34, 4-(4-bromo-2-fluoroanilino)-6-methoxy-7-(2-(1H-imidazol-1-yl)ethoxy)quinazoline]
The MTD of the first is higher: 500 to 1000 mg/kg for the first, 125 to 250 mg/kg for the second.

Compared with COc1cc2c(Nc3ccc(F)c(Cl)c3)ncnc2cc1OCc1cnc(C)s1 [Compound 27, 4-(3-chloro-4-fluoroanilino)-6-methoxy-7-((2-methylthiazol-5-yl)methoxy)quinazoline], COc1cc2c(Nc3ccc(F)c(Cl)c3)ncnc2cc1OCCCCCC(N)=O [Compound 24, 6-(4-(3-chloro-4-fluoroanilino)-6-methoxyquinazolin-7-yl-oxy)hexanamide] is lower in MTD: 500 to 1000 mg/kg for the first, 125 to 250 mg/kg for the second.

With COc1cc2c(Nc3ccc(Br)cc3F)ncnc2cc1OCCCCC(N)=O [Compound 33, 5-(4-(4-bromo-2-fluoroanilino)-6-methoxyquinazolin-7-yl-oxy)pentanamide] the MTD was 62.5 to 125 mg/kg.
